The nature of series [1]: Compound 1 levels in plasma, quadriceps and PDA tissue of KPC mice. In kind it is in vivo. The conditions noted are these: 24 hours after single oral dose 10 mg/kg (FIG. 5a). The procedure: (§1) Blood plasma and tissue samples to be used for analysis were immediately frozen on dry ice and stored at −80° C. until analysis. Concentrations of Compound 1 in samples were quantified using high-performance liquid chromatography with tandem mass spectrometry (LC-MS/MS). Compound 1 and its internal standard (deuterated Compound 1) were recovered by protein precipitation extraction from samples.
For the pharmacokinetic study that assessed plasma, quadriceps muscle, and tumor tissue following a single dose of Compound 1 the assay conditions were as follows (FIG. 5a):
Plasma: A standard curve was made to cover concentrations between 0.002 ug/mL and 6.0 ug/mL. the LLOQ for Compound 1 (either version) in plasma was 0.001 μg/mL
Quadriceps muscle: A standard curve was made to cover concentrations between 0.001 μg/g wet tissue and 3.0 μg/g wet tissue. The LLOQ for Compound 1 (either version) was 0.01 μg/g wet tissue.
Tumor tissue: A standard curve was made to cover concentrations between 0.001 μg/g wet tissue and 3.0 μg/g wet tissue. The LLOQ for Compound 1 (either version) was 0.02 μg/g wet tissue.

For series [2], the system named is J1002VEH and J1002TAM cells. The series is described as follows: Cell cycle analysis of J1002VEH and J1002TAM cells. In kind it is cell-based, mouse. The procedure: Cells were seeded into 12-well or 6-well plates such that 16 hours later they would be approximately 30-50% confluent. Cells were then treated for 24 hours with either DMSO (<0.003%), Compound 1 (100 nM or 1 μM), or 100 nM nocodazole (Sigma, M1404). Following treatment, cells were harvested and fixed in ice-cold 70% ethanol for a minimum of one hour. Following fixation, cells were re-suspended in PBS+2% FBS+3 μM DAPI (BioLegend, 422801) or 0.25 μg 7-AAD (BD Pharmingen, 559925), and analyzed on a MACSQuant® Analyzer 10 (Miltenyi Biotec) or BD LSR II™. For cell cycle analysis time course experiments, cells were prepared as described above, except treated for 24, 48, or 72 hours. Data was analyzed using FlowJo software. Percent populations in G2/M were identified using the univariate cell cycle platform offered by FlowJo software. Percent populations >4N were determined by gating above the 4N population of DMSO-treated cells. (FIG. 1b, FIG. 1c, FIG. 2a, FIG. 2b, FIG. 10e, and FIG. 10g)

The subject of series [3] is PDA tumors in KPC mice. The series is described as follows: KPC intervention/survival study. Format: in vivo. The conditions noted are these: KPC mice (FIGS. 7a, 7b). The procedure: Tumor formation in KPC mice was monitored by weekly palpation until the detection of a mass. Upon positive palpation, the mass was monitored by twice weekly ultrasound until the tumor reached an enrollable size of 4-7 mm average diameter. Once enrollable, KPC mice were randomly enrolled into a treatment arm of the intervention study. Mice were treated with vehicle, Compound 1 (17 mg/kg, PO, b.i.w.), gemcitabine alone (100 mg/kg, IP, b.i.w.), or Compound 1+gemcitabine. Mice receiving Compound 1 also received gemcitabine vehicle (saline, IP, b.i.w.) at a volume (μL) of 50× body weight (g). Mice receiving gemcitabine also received Compound 1 vehicle (0.5% hydroxypropylmethylcellulose with 0.1% Tween80 (w/v), PO, b.i.w.) at a volume (μL) of 5.7× body weight (g). All drug and vehicle combinations were administered simultaneously.
Tumor ultrasonography and volume quantification were carried out as described in Sastra S A, Olive K P, Quantification of murine pancreatic tumors by high-resolution ultrasound, Methods Mol Biol 2013; 980:249-66. […]
To prepare samples for immunohistochemistry, tissues were first fixed overnight in 10% phosphate-buffered formalin and then stored in 70% ethanol for long-term storage. […] Next, antigen retrieval was carried out in an experimentally determined, antibody-specific antigen retrieval buffer (usually 10 mM citrate, pH 6.0 or 10 mM Tris, pH 10.0). […]

A short description of series [4]: Plasma pharmacokinetic time course in mice after a single oral dose. In kind it is in vivo. The conditions noted are these: single oral dose 10 mg/kg (FIG. 4a). The procedure:
as §1
For the plasma pharmacokinetic time course study, a standard curve was made to cover concentrations between 0.001 ug/mL and 3.0 μg/mL. The lower limit of quantification (LLOQ) for Compound 1 (either version) in plasma was 0.001 μg/mL. (FIG. 4a)

The structures appear in SMILES notation. Entries after “also recorded” stand apart in the source; their conditions may differ.

Consider `Cc1nc2ccc(F)cc2n1-c1nc(N)c(F)c(Nc2ccc(C(F)(F)F)cc2)n1` [Compound 1, 5-fluoro-2-(6-fluoro-2-methyl-1H-benzo[d]imidazol-1-yl)-N4-[4-(trifluoromethyl)phenyl]pyrimidine-4,6-diamine], for which the “distribution into PDA tumor tissue” value in series [1] is given as “effective biodistribution into tumor tissues; also recorded: distributes into PDA tissues”. In series [2] (1.0 μM, 24 hours (FIGS. 10d-10g)), the “cell cycle distribution / polyploidy of J1002VEH and J1002TAM cells” value was “dose and time-dependent increase in the amount of BMI-1 dependent cells affected by polyploidy”. Further, the “BMI-1 hyperphosphorylation (conclusion from FIG. 10 data as a whole)” value in series [2] (data taken as a whole) is “induces BMI-1 hyperphosphorylation indirectly as a result of mitotic arrest”. Besides, the “tumor volumes by high resolution 3D ultrasound” value in series [3] is listed as “time-dependent decrease in KPC mouse model PDA tumor volume”. Further, in series [4], the “CNS penetration / brain distribution” value was “penetrates the CNS and distributes into brain tissues”. The “plasma / circulating half-life” value in series [4] (10 mg/kg) was “long circulating half-life; also recorded: long plasma half-life”.

Source of the values: patent US12023335B2, “Method for treating pancreatic cancer” (PTC THERAPEUTICS, INC., priority 2018, dated 2024).
